From patent US20060264411A1, “Control of biofilm formation” (priority 2005, published 2006)

Columns and labels:
[1] = Bladder concentrations in rats after oral dose; details: rat, in vivo, po, 50 mg/kg
Protocol: Pharmacokinetic studies of asiatic acid and madecassic acid in rats were performed separately. Asiatic acid and madecassic acid were evaluated at 50 mg/kg (oral). Two animals were assigned to each group. Prior to dosing, a baseline blood sample was taken from each animal. At time zero, asiatic acid and madecassic acid, a single bolus dose in 50% Labrasol (Gattefosse) was given to each animal. Bladders were analyzed at 24 hours. Concentrations of both asiatic acid and madecassic acid in the bladder were approximately 30 μg/g at 24 hours.

[2] = test system: Clinical isolates of P. aeruginosa from cystic fibrosis patients; assay: Detachment of mature biofilms on peg lids, crystal violet; format: cell-based; details: 5 ug/ml; about 40 hours; eighteen clinical isolates
Protocol: Clinical isolates of P. aeruginosa from cystic fibrosis patients were passed twice on tryptic soy agar with 5% sheep blood after retrieval from −80° C. and then grown overnight in CAMHB. After dilution of a culture to 0.5 McFarland in broth medium, 100 μl was transferred in triplicate to wells of a flat-bottom 96-well microtiter plate. Bacterial biofilms were formed by immersing the pegs of a modified polystyrene microtiter lid into this biofilm growth plate, followed by incubation at 37° C. for 20 hours with no movement.
Peg lids were rinsed three times in sterile water, placed onto flat-bottom microtiter plates containing biofilm inhibitors at 5 ug/ml in 100 μl of CAMHB per well and incubated for approximately 40 hours at 37° C.
Pegs were rinsed, placed in a 0.1% (wt/vol) crystal violet solution for 15 min, rinsed again, and dried for several hours. To solubilize adsorbed crystal violet, pegs were incubated in 95% ethanol (150 μl per well of a flat-bottom microtiter plate) for 15 min. The absorbance was read at 590 nm on a plate reader. The wells containing asiatic acid were compared to negative controls. Negative controls were prepared as stated above but without asiatic acid.

[3] = test system: cysB gene; details: examples of U.S. patent application Ser. No. 11/085,279; cited from earlier work
[4] = test system: E. coli UTI89[pCOMGFP]; assay: Biofilm pods / intracellular bacterial communities (IBC) in mouse bladders, confocal microscopy; format: in vivo, C3H/HeN mice
Protocol: The experiment was performed using the procedures described in Justice, S. et al., Differentiation and development pathways of uropathogenic Escherichia coli in urinary tract pathogenesis.PNAS, 2004, 101(5), p. 1333-1338. Briefly, E. coli UTI89[pCOMGFP] was prepared after retrieval from frozen stocks by inoculating in LB medium statically for approximately 20 hours. Cells were harvested and suspended in 1 ml of PBS. Cells were diluted to achieve approximately a 10^8 CFU or 10^7 CFU input into C3H/HeN mice (2 mice per group).
Mice were deprived of water for approximately two hours. In experiment 1, all mice were anesthetized with 0.15 cc ketamine cocktail. In experiment 2, all mice were anesthetized with isofluorane. In experiment 1, urine was dispelled from the bladders and approximately 40 μg/ml of test compound or an appropriate amount of ethanol as control was introduced into the bladders via catheterization of the urethra using a tubing coated tuberculin syringe. 30 minutes was allowed to elapse. In experiment 2, bladders were not pre-incubated with test compounds. Bladders were then expelled and an inoculum of 10^8 CFU (Experiment 1) or 10^7 CFU (Experiment 2) of E. coli containing 40 μg/ml of test compound or equivalent amount of ethanol as controls were introduced into the bladders as indicated above.
In experiment 1 five hours elapsed and in experiment 2 six hours elapsed, and then mice were anesthetized and sacrificed. The bladders were removed, bisected, stretched, and fixed in 3% paraformaldehyde for 1 hour at room temperature. Bladders were then permeabilized in 0.01% Triton/PBS for 10 minutes and counter stained with TOPRO3 (Molecular Probes) for 10 minutes for visualization by confocal microscopy. Bladders were mounted on Prolong antifade (Molecular Probes).

[5] = test system: S. sobrinus 6715; assay: Biofilm growth inhibition in polycarbonate tubes; format: cell-based; details: Streptococcus sobrinus, 40 μg/mL
[6] = test system: bacterial invasion; assay: Bacterial invasion statement of Example 9; details: within 15 minutes of administration
[7] = test system: E. coli clinical strain UTI89; assay: Invasion of E. coli UTI89 into bladder epithelial cells; format: cell-based; details: 40 μg/ml; 60 minutes; separate experiments (n=4-7)
Protocol: The effect of test compounds on bacterial invasion of E. coli clinical strain UTI89 was studied as described in Elsinghorst, et al. 1994, Methods Enzymol, 236:405-420; and Martinez et al., 2000, EMBO J., 19:2803-2812. Epithelial bladder cells were grown in plates. Asiatic acid, corosolic acid, or ursolic acid were added at concentrations of 10 μg/ml, 20 μg/ml, or 40 μg/ml to bacteria and epithelial cells for approximately 5, 15, 30, or 60 minutes with approximately 10^7 CFU of E. coli. Binding was assessed at time zero and invasion was assessed at approximately 5, 15, 30, or 60 minutes from completing the mixture of compound, bacteria, and epithelial cells. As a control ethanol was added to cells to a final concentration of 0.1%. The effect of bacterial viability and bacterial adherence during the infection period was evaluated according to the methods described in Martinez et al., 2000, EMBO J., 19:2803-2812.

[8] = test system: S. mutans 25175; assay: Biofilm growth inhibition in polycarbonate tubes; format: cell-based; details: Streptococcus mutans, 40 μg/mL
[9] = test system: E. coli clinical strain UTI89; assay: Biofilm formation inhibition, crystal violet, E. coli clinical strain UTI89; format: cell-based; details: Escherichia coli, read-out: inhibited biofilm formation as compared to the controls
Protocol: Biofilm inhibition experiments were conducted using an assay adapted from the reported protocol described in Pratt and Kolter, 1998, Molecular Microbiology, 30: 285-293; Li et al., 2001, J. Bacteriol., 183: 897-908. E. coli clinical strain UTI89 was grown in LB in 96 well plates at room temperature for one or two days without shaking. E. coli laboratory strain JM109 was grown in LB plus 0.2% glucose in 96 well plates at room temperature for one day without shaking. To quantify the biofilm mass, the suspension culture was poured out and the biofilm was washed three times with water. The biofilm was stained with 0.1% crystal violet for 20 minutes. The plates were then washed three times with water. OD reading at 540 nm was measured to quantify the biofilm mass at the bottom of the wells. Then 95% ethanol was added to dissolve the dye at the bottom and on the wall and the OD reading at 540 nm was measured to quantify the total biofilm mass. To study the overall effect of the compounds (3.6 mg/mL in 100% ethanol as stock solution), it was added with the inoculation and a time course of biofilm mass was measured. Appropriate amounts of 100% ethanol were added to each sample to eliminate the effect of solvent. Each condition had 3-4 replicates on each plate and was performed over multiple days.

SMILES: C[C@H]1[C@H](C)CC[C@]2(C(=O)O)CC[C@]3(C)C(=CC[C@@H]4[C@@]5(C)C[C@@H](O)[C@H](O)[C@@](C)(CO)[C@@H]5CC[C@]43C)[C@H]12 [Asiatic acid, asiatic acid]
- concentration at 24 h [1]: ~30000 ng/g
- average detachment of mature biofilms compared to negative controls [2]: approximately 50%
- expression of a cysB gene in E. coli [3]: modulate the expression of a cysB gene
- reduction in biofilm pods or intracellular bacterial communities (IBC) in the bladders of mice as compared to the controls ([4]; experiment 1: 40 μg/ml intravesical, 30 min pre-incubation, 10^8 CFU, five hours): 77%
- reduction in large biofilm pods or large IBC in the bladders of mice as compared to the controls ([4]; experiment 2: 40 μg/ml with inoculum, no pre-incubation, 10^7 CFU, six hours): ~60%
- inhibition at 40 µg/mL [5]: > 75%
- bacterial invasion (in words) [6]: significantly reduced bacterial invasion
- reduced invasion of E. coli into bladder epithelial cells as compared to the controls [7]: 87%
- inhibition at 40 µg/mL [8]: > 75%
- inhibition at 4 µg/mL ([9]; 4 ug/ml): ~10%
- inhibition at 8 µg/mL ([9]; 8 ug/ml): ~15%
- inhibition at 16 µg/mL ([9]; 16 ug/ml): ~50%
- inhibition at 32 µg/mL ([9]; 32 ug/ml): ~90%
